From US20230357310A1, “Saponin derivatives with improved therapeutic window” (priority 2019, published 2023) come the findings set out here.

Data set [1] relates to EGFR expressing cells (HeLa). In words: cells. The settings on record: summary statement in the description.
Data set [2] in a line: Critical micellar concentration (ANS fluorescence). The format is physicochemical. The settings on record: comparison in words. As to the method: The critical micellar concentration (CMC) of saponins derived from Saponaria officinalis (SO) (Table A7) and derived from Quillaja saponaria (QS) (Table A8, and Table A9) was determined by the method of DeVendittis et al. (A fluorimetric method for the estimation of the critical micelle concentration of surfactants, Analytical Biochemistry, Volume 115, Issue 2, August 1981, Pages 278-286) as follows:
The emission spectrum of 8-Anilinonaphthalene-1-sulfonic acid (ANS) in either purified water (MQ) or PBS (Dulbecco's PBS+/+) was determined at dry weight concentrations of saponins ranging from 1 to 1400 μM to cover the range below and above the CMC. Above the CMC, the fluorescence yield of ANS increases and the wavelength of maximum emission decreases due to portioning of the fluorescent dye into micelles. Fluorescence yields were recorded on a Fluoroskan Ascent FL (Thermo Scientific) at an excitation wavelength of 355 nm, and an emission wavelength of 460 nm. 6 μg at a concentration of 75.86 μM of ANS were used per sample and measurement.

On to `CC(=O)OC1C(C)OC(OC2C(C)OC(OC(=O)[C@]34CCC(C)(C)CC3C3=CCC5[C@@]6(C)CC[C@H](OC7OC(C(=O)NC(C)(CO)CO)C(O)C(OC8OCC(O)C(O)C8O)C7OC7OC(CO)C(O)C(O)C7O)[C@@](C)(C=O)C6CC[C@@]5(C)[C@]3(C)C[C@H]4O)C(OC3OC(C)C(OC4OCC(O)C(OC5OC(CO)C(O)C(O)C5O)C4O)C(O)C3O)C2O)C(O)C1OC1OCC(O)C(O)C1O` (stereo partly shown) [Molecule 3A], for which the “endosomal escape enhancing activity (enhancement of cytotoxicity of ADC / effector molecules)” value in data set [1] is on record as “display activity”.

As for `CC(=O)OC1C(C)OC(OC2C(C)OC(OC(=O)[C@]34CCC(C)(C)CC3C3=CCC5[C@@]6(C)CC[C@H](OC7OC(C(=O)O)C(O)C(OC8OCC(O)C(O)C8O)C7OC7OC(CO)C(O)C(O)C7O)[C@@](C)(CO)C6CC[C@@]5(C)[C@]3(C)C[C@H]4O)C(OC3OC(C)C(OC4OCC(O)C(OC5OC(CO)C(O)C(O)C5O)C4O)C(O)C3O)C2O)C(O)C1OC1OCC(O)C(O)C1O` (stereo partly shown) [Molecule 6], the “endosomal escape enhancing activity (enhancement of cytotoxicity of ADC / effector molecules)” value in data set [1] is given as “have the capacity to enhance the cytotoxic effect”. Besides, the “CMC compared with native (underivatised) saponin” value (“CMC compared with native” for short) in data set [2] is “increased CMC”.

Consider `CC1OC(OC2C(C)OC(OC(=O)[C@]34CCC(C)(C)CC3C3=CCC5[C@@]6(C)CC[C@H](OC7OC(C(=O)O)C(O)C(OC8OCC(O)C(O)C8O)C7OC7OC(CO)C(O)C(O)C7O)[C@@](C)(C=O)C6CC[C@@]5(C)[C@]3(C)C[C@H]4O)C(OC3OC(C)C(OC4OCC(O)C(OC5OC(CO)C(O)C(O)C5O)C4O)C(O)C3O)C2O)C(O)C(OC2OCC(O)C(O)C2O)C1O` (stereo partly shown) [Molecule 8], for which the “endosomal escape enhancing activity (enhancement of cytotoxicity of ADC / effector molecules)” value in data set [1] is recorded as “display activity”. Further, in data set [2], the “CMC compared with native” value is recorded as “increased CMC”.

As for `CC(=O)OC1C(C)OC(OC2C(C)OC(OC(=O)[C@]34CCC(C)(C)CC3C3=CCC5[C@@]6(C)CC[C@H](OC7OC(C(=O)NC(C)(CO)CO)C(O)C(OC8OCC(O)C(O)C8O)C7OC7OC(CO)C(O)C(O)C7O)[C@@](C)(CO)C6CC[C@@]5(C)[C@]3(C)C[C@H]4O)C(OC3OC(C)C(OC4OCC(O)C(OC5OC(CO)C(O)C(O)C5O)C4O)C(O)C3O)C2O)C(O)C1OC1OCC(O)C(O)C1O` (stereo partly shown) [Molecule 9], in data set [1], the “endosomal escape enhancing activity (enhancement of cytotoxicity of ADC / effector molecules)” value is recorded as “have the capacity to enhance the cytotoxic effect”.

Regarding `CC1OC(OC2C(C)OC(OC(=O)[C@]34CCC(C)(C)CC3C3=CCC5[C@@]6(C)CC[C@H](OC7OC(C(=O)O)C(O)C(OC8OCC(O)C(O)C8O)C7OC7OC(CO)C(O)C(O)C7O)[C@@](C)(CO)C6CC[C@@]5(C)[C@]3(C)C[C@H]4O)C(OC3OC(C)C(OC4OCC(O)C(OC5OC(CO)C(O)C(O)C5O)C4O)C(O)C3O)C2O)C(O)C(OC2OCC(O)C(O)C2O)C1O` (stereo partly shown) [Molecule 10], the “endosomal escape enhancing activity (enhancement of cytotoxicity of ADC / effector molecules)” value in data set [1] was “have the capacity to enhance the cytotoxic effect”. Further, the “CMC compared with native” value in data set [2] is on record as “increased CMC”.

As for `CC1OC(OC2C(C)OC(OC(=O)[C@]34CCC(C)(C)CC3C3=CCC5[C@@]6(C)CC[C@H](OC7OC(C(=O)NC(C)(CO)CO)C(O)C(OC8OCC(O)C(O)C8O)C7OC7OC(CO)C(O)C(O)C7O)[C@@](C)(C=O)C6CC[C@@]5(C)[C@]3(C)C[C@H]4O)C(OC3OC(C)C(OC4OCC(O)C(OC5OC(CO)C(O)C(O)C5O)C4O)C(O)C3O)C2O)C(O)C(OC2OCC(O)C(O)C2O)C1O` (stereo partly shown) [Molecule 11], in data set [1], the “endosomal escape enhancing activity (enhancement of cytotoxicity of ADC / effector molecules)” value is listed as “display activity”.

As to `CC(=O)OC1C(C)OC(OC2C(C)OC(OC(=O)C34CCC(C)(C)CC3C3=CCC5C6(C)CCC(OC7OC(C(=O)NC(C)(CO)CO)C(O)C(OC8OCC(O)C(O)C8O)C7OC7OC(CO)C(O)C(O)C7O)C(C)(C=NNC(=O)CCCCCN7C(=O)C=CC7=O)C6CCC5(C)C3(C)CC4O)C(OC3OC(C)C(OC4OCC(O)C(OC5OC(CO)C(O)C(O)C5O)C4O)C(O)C3O)C2O)C(O)C1OC1OCC(O)C(O)C1O` (stereo not shown) [Molecule 14], the “endosomal escape enhancing activity (enhancement of cytotoxicity of ADC / effector molecules)” value in data set [1] was “have the capacity to enhance the cytotoxic effect”.

With `CC1OC(OC2C(C)OC(OC(=O)C34CCC(C)(C)CC3C3=CCC5C6(C)CCC(OC7OC(C(=O)O)C(O)C(OC8OCC(O)C(O)C8O)C7OC7OC(CO)C(O)C(O)C7O)C(C)(C=NNC(=O)CCCCCN7C(=O)C=CC7=O)C6CCC5(C)C3(C)CC4O)C(OC3OC(C)C(OC4OCC(O)C(OC5OC(CO)C(O)C(O)C5O)C4O)C(O)C3O)C2O)C(O)C(OC2OCC(O)C(O)C2O)C1O` (stereo not shown) [Molecule 15], in data set [1], the “endosomal escape enhancing activity (enhancement of cytotoxicity of ADC / effector molecules)” value is reported as “have the capacity to enhance the cytotoxic effect”. Further, the “CMC compared with native” value in data set [2] is “increased CMC”.

For the compound `CC(=O)OC1C(C)OC(OC2C(C)OC(OC(=O)[C@]34CCC(C)(C)CC3C3=CCC5[C@@]6(C)CC[C@H](OC7OC(C(=O)NCCN8C(=O)C=CC8=O)C(O)C(OC8OCC(O)C(O)C8O)C7OC7OC(CO)C(O)C(O)C7O)[C@@](C)(C=O)C6CC[C@@]5(C)[C@]3(C)C[C@H]4O)C(OC3OC(C)C(OC4OCC(O)C(OC5OC(CO)C(O)C(O)C5O)C4O)C(O)C3O)C2O)C(O)C1OC1OCC(O)C(O)C1O` (stereo partly shown) [Molecule 18], the “endosomal escape enhancing activity (enhancement of cytotoxicity of ADC / effector molecules)” value in data set [1] was “display activity”.

In the case of `CC1OC(OC2C(C)OC(OC(=O)[C@]34CCC(C)(C)CC3C3=CCC5[C@@]6(C)CC[C@H](OC7OC(C(=O)NCCN8C(=O)C=CC8=O)C(O)C(OC8OCC(O)C(O)C8O)C7OC7OC(CO)C(O)C(O)C7O)[C@@](C)(C=O)C6CC[C@@]5(C)[C@]3(C)C[C@H]4O)C(OC3OC(C)C(OC4OCC(O)C(OC5OC(CO)C(O)C(O)C5O)C4O)C(O)C3O)C2O)C(O)C(OC2OCC(O)C(O)C2O)C1O` (stereo partly shown) [Molecule 19], the “endosomal escape enhancing activity (enhancement of cytotoxicity of ADC / effector molecules)” value in data set [1] is reported as “display activity”.

`CC(=O)OC1C(C)OC(OC2C(C)OC(OC(=O)[C@]34CCC(C)(C)CC3C3=CCC5[C@@]6(C)CC[C@H](OC7OC(C(=O)NCCN8C(=O)C=CC8=O)C(O)C(OC8OCC(O)C(O)C8O)C7OC7OC(CO)C(O)C(O)C7O)[C@@](C)(CO)C6CC[C@@]5(C)[C@]3(C)C[C@H]4O)C(OC3OC(C)C(OC4OCC(O)C(OC5OC(CO)C(O)C(O)C5O)C4O)C(O)C3O)C2O)C(O)C1OC1OCC(O)C(O)C1O` (stereo partly shown) [Molecule 20]: the “endosomal escape enhancing activity (enhancement of cytotoxicity of ADC / effector molecules)” value in data set [1] is listed as “have the capacity to enhance the cytotoxic effect”.

As to `CC(=O)OC1C(C)OC(OC2C(C)OC(OC(=O)[C@]34CCC(C)(C)CC3C3=CCC5[C@@]6(C)CC[C@H](OC7OC(C(=O)NCCN8C(=O)C=CC8=O)C(O)C(OC8OCC(O)C(O)C8O)C7OC7OC(CO)C(O)C(O)C7O)[C@@](C)(CO)C6CC[C@@]5(C)[C@]3(C)C[C@H]4O)C(OC3OC(C)C(OC4OCC(O)C(OC5OC(CO)C(O)C(O)C5O)C4O)C(O)C3O)C2O)C(O)C1OC1OCC(O)C(O)C1O` (stereo partly shown) [SO1861-(Glu-AEM)-(Ald-OH)], the “CMC compared with native” value in data set [2] is given as “lower CMC values”.

Take `CC1OC(OC2C(C)OC(OC(=O)[C@]34CCC(C)(C)CC3C3=CCC5[C@@]6(C)CC[C@H](OC7OC(C(=O)O)C(O)C(OC8OCC(O)C(O)C8O)C7OC7OC(CO)C(O)C(O)C7O)[C@@](C)(C=O)C6CC[C@@]5(C)[C@]3(C)C[C@H]4O)C(OC3OC(C)C(OC4OCC(O)C(OC5OC(CO)C(O)C(O)C5O)C4O)C(O)C3O)C2O)C(O)C(OC2OCC(O)C(O)C2O)C1O` (stereo partly shown) [SO1861-Ac—OH]: the “CMC compared with native” value in data set [2] is “higher CMC values”.

Take `CC(=O)OC1C(C)OC(OC2C(C)OC(OC(=O)[C@]34CCC(C)(C)CC3C3=CCC5[C@@]6(C)CC[C@H](OC7OC(C(=O)O)C(O)C(OC8OCC(O)C(O)C8O)C7OC7OC(CO)C(O)C(O)C7O)[C@@](C)(CO)C6CC[C@@]5(C)[C@]3(C)C[C@H]4O)C(OC3OC(C)C(OC4OCC(O)C(OC5OC(CO)C(O)C(O)C5O)C4O)C(O)C3O)C2O)C(O)C1OC1OCC(O)C(O)C1O` (stereo partly shown) [SO1861-Ald-OH]: in data set [2], the “CMC compared with native” value was “higher CMC values”.

For the compound `CC(=O)OC1C(C)OC(OC2C(C)OC(OC(=O)[C@]34CCC(C)(C)CC3C3=CCC5[C@@]6(C)CC[C@H](OC7OC(C(=O)NC(C)(CO)CO)C(O)C(OC8OCC(O)C(O)C8O)C7OC7OC(CO)C(O)C(O)C7O)[C@@](C)(C=O)C6CC[C@@]5(C)[C@]3(C)C[C@H]4O)C(OC3OC(C)C(OC4OCC(O)C(OC5OC(CO)C(O)C(O)C5O)C4O)C(O)C3O)C2O)C(O)C1OC1OC(C)C(O)C(O)C1O` (stereo partly shown) [SO1861-Glu-AMPD], the “CMC compared with native” value in data set [2] is reported as “lower CMC values”.
